# “Also recorded” adds a separate entry of the source.
# Tests used:
# [1] = Photophysical properties of the metallacrowns in solid state and in aqueous solutions; assay type: physicochemical
# Method: FIG. 4. illustrates the normalized excitation (λem(Nd^3+)=1070 nm, λem(Yb^3+)=980 nm) and emission (λex=370 nm) spectra of Yb^3+[Zn(II)MCpyzHA], at the top, and Nd^3+[Zn(II)MCpyzHA] MCs, at the bottom, (solid or 200 μM solutions, room temperature).
# HeLa cells = experiment: NIR epifluorescence microscopy of HeLa cells treated with N-acetyl cysteine; assay type: cell-based, Human; settings: 150 μM complex 15 minutes
# Method: Formation of extracellular vesicules is a result of cellular response on oxidative stress which indicates excessive production of ROS (Reactive oxygen species). In order to investigate if ROS are responsible for dual function of Yb^3+[Zn(II)MCpyzHA], HeLa cancer cells were treated with NAC (N-acetyl cysteine), which is a well known antioxidant that efficiently blocks production of reactive oxygen species (ROS).
# Cells were seeded in a 8-well Lab Tek Chamber coverglass (Nunc, Dutsher S.A., Brumath, France) at a density of 6×10^4 cells/well and cultured at 37° C. in 5% humidified CO2 atmosphere.
# After 24 hours, the cell culture media was removed. Some of the cells were washed twice with OPTI-MEM® media (room temperature), incubated with N-acetyl cysteine (NAC) for 15 minutes, washed twice with OPTI-MEM® media and incubated with 150 μM of Yb^3+[Zn(II)MCpyzHA] for 15 minutes.
# After 24 hours, the cell culture media was removed. Some of the cells were washed twice with OPTI-MEM® media (room temperature), and incubated with 150 μM of Yb^3+[Zn(II)MCpyzHA] for 15 minutes. N-acetyl cysteine (NAC) was added, and the cells were incubated for another 30 minutes. The cells were washed twice with OPTI-MEM® media.
# MSC stem cells = settings: 150 μM, 15 minutes, UV light (377 nm) 8 minutes, further 1 hour; λex 458 nm, λem 499-799 nm
# Method: For these confocal microscopy experiments, the HeLa or MSC cells were prepared in the same way as for the epifluorescence microscopy experiments (see Example 1, Short incubation, UV light exposure #1 and #3). […] Complexes were excited with Argon laser at 458 nm and emission signal was collected from 499 nm to 799 nm. During this experiment, a 63× Plan-Apochromat objective was used (2× zoom).
# [2] = Photophysical parameters in OPTI-MEM media, cell supernatant and HeLa cells; assay type: physicochemical
# Method: The Yb^3+[Zn(II)MCpyzHA] complexes were dissolved in OPTI-MEM® medium with 2% SVF (without cells) and were incorporated in HeLa cells, both with and without exposure to UV light. The results in are shown in FIG. 20, (A) (corrected and normalized excitation) and FIG. 20, (B) (corrected and normalized emission). […] The present inventors developed instrumentation in order to collect photophysical properties of MCs inside of cancer cells. They measured quantitative photophysical parameters (quantum yields and life times) inside of the cells with equipment which is usually adapted for measuring of (quantum yields and life times) in solids or in concentrated solutions.
# The Yb^3+[Zn(II)MCpyzHA] complexes were collected together with cell supernatant (SN) and with HeLa cells treated with N-acetyl cysteine, both with and without exposure to UV light. For SN1 and cells1, incubation with NAC took place for 30 minutes, then the cells were washed, and incubation with Yb^3+[Zn(II)MCpyzHA] took place for 15 minutes. For SN2 and cells2, incubation with Yb^3+[Zn(II)MCpyzHA] took place for 15 minutes, and then NAC was added and incubation with NAC took place for 30 minutes. The results in are shown in FIGS. 20C (corrected and normalized excitation) and 20D (corrected and normalized emission). […]
# [3] = No UV NAC (SN1*): cell supernatant, NAC 30 minutes, washed, then complex 15 minutes
# [4] = No UV NAC (SN2*): cell supernatant, complex 15 minutes, then NAC 30 minutes
# [5] = No UV NAC (in cells1*): NAC 30 minutes, washed, then complex 15 minutes
# [6] = No UV NAC (in cells2*): complex 15 minutes, then NAC 30 minutes
# [7] = No UV: After 5 h of incubation with HeLa cells without illumination
# [8] = UV NAC (SN2*): cell supernatant, complex 15 minutes, then NAC 30 minutes
# [9] = UV NAC (in cells2*): complex 15 minutes, then NAC 30 minutes
# [10] = UV: After 5 h of incubation with HeLa cells with UV illumination (during 8 min)
smiles,measurement,setting,value
O=C([N-][O-])c1cnccn1.O=C([N-][O-])c1cnccn1.O=C([N-][O-])c1cnccn1.O=C([N-][O-])c1cnccn1.O=C([N-][O-])c1cnccn1.O=C([N-][O-])c1cnccn1.O=C([N-][O-])c1cnccn1.O=C([N-][O-])c1cnccn1.O=C([N-][O-])c1cnccn1.O=C([N-][O-])c1cnccn1.O=C([N-][O-])c1cnccn1.O=C([N-][O-])c1cnccn1.O=C([N-][O-])c1cnccn1.O=C([N-][O-])c1cnccn1.O=C([N-][O-])c1cnccn1.O=C([N-][O-])c1cnccn1.O=S(=O)([O-])C(F)(F)F.O=S(=O)([O-])C(F)(F)F.O=S(=O)([O-])C(F)(F)F.[Yb+3].[Zn+2].[Zn+2].[Zn+2].[Zn+2].[Zn+2].[Zn+2].[Zn+2].[Zn+2].[Zn+2].[Zn+2].[Zn+2].[Zn+2].[Zn+2].[Zn+2].[Zn+2].[Zn+2].c1ccncc1.c1ccncc1.c1ccncc1.c1ccncc1.c1ccncc1.c1ccncc1.c1ccncc1.c1ccncc1 [Yb^3+[Zn(II)MCpyzHA]],"Q (quantum yield), D2O","[1]; 200 μM in D2O, room temperature, excitation at 370 nm",0.257(3) %
same,"Q (quantum yield), H2O","[1]; 200 μM in H2O, room temperature, excitation at 370 nm",1.12(7) · 10^−2%
same,Excitation wavelength limit,"[1]; FIG. 4 (Top), excitation spectrum",up to 480 nm
same,"Q (quantum yield), Solid","[1]; solid state, room temperature, excitation at 370 nm",0.659(4) %
same,"Internalization inside the cells, complex Incubation First",HeLa cells; then NAC 30 minutes,do not show internalization
same,"NIR signal in cells, NAC Incubation First","HeLa cells; NAC 15 minutes, wash, exposure time 400 ms",very good signal in NIR
same,"Intracellular location (confocal, visible ligand emission)",MSC stem cells,specifically located in nucleus as well as in cytoplasm
same,Quantum yield,[2]; In HeLa cells,2.14(6) · 10^−2%
same,τ2,[2]; In HeLa cells,23.6(7) μs
same,τ2 contribution,[2]; In HeLa cells,100%
same,Quantum yield,[2]; [3],1.08(1) · 10^−2%
same,τ1,[2]; [3],7.27(2) μs
same,τ1 contribution,[2]; [3],91%
same,τ2,[2]; [3],50(2) μs
same,τ2 contribution,[2]; [3],9%
same,Quantum yield,[2]; [4],1.00(4) · 10^−2%
same,τ1,[2]; [4],6.72(3) μs
same,τ1 contribution,[2]; [4],88%
same,τ2,[2]; [4],28.4(1) μs
same,τ2 contribution,[2]; [4],12%
same,τ1,[2]; [5],7.5(4) μs
same,τ1 contribution,[2]; [5],6%
same,τ2,[2]; [5],22.9(1) μs
same,τ2 contribution,[2]; [5],94%
same,τ1,[2]; [6],7.3(1) μs
same,τ1 contribution,[2]; [6],7%
same,τ2,[2]; [6],23.6(2) μs
same,τ2 contribution,[2]; [6],93%
same,Quantum yield,[2]; [7],1.52(3) · 10^−2%
same,τ1,[2]; [7],6.47(4) μs
same,τ1 contribution,[2]; [7],75%
same,τ2,[2]; [7],21.6(8) μs
same,τ2 contribution,[2]; [7],25%
same,Quantum yield,[2]; OptiMEM,1.25(1) · 10^−2%
same,τ1,[2]; OptiMEM,6.45(5) μs
same,τ1 contribution,[2]; OptiMEM,89%
same,τ2,[2]; OptiMEM,24(1) μs
same,τ2 contribution,[2]; OptiMEM,11%
same,Quantum yield,[2]; OptiMEM-UV 1 h 30 min,2.05(5) · 10^−2%
same,τ1,[2]; OptiMEM-UV 1 h 30 min,7.03(3) μs
same,τ1 contribution,[2]; OptiMEM-UV 1 h 30 min,61%
same,τ2,[2]; OptiMEM-UV 1 h 30 min,21.5(1) μs
same,τ2 contribution,[2]; OptiMEM-UV 1 h 30 min,39%
same,Quantum yield,[2]; [8],1.06(5) · 10^−2%
same,τ1,[2]; [8],6.80(9) μs
same,τ1 contribution,[2]; [8],75%
same,τ2,[2]; [8],23(1) μs
same,τ2 contribution,[2]; [8],25%
same,τ1,[2]; [9],8.7(5) μs
same,τ1 contribution,[2]; [9],9%
same,τ2,[2]; [9],23.2(1) μs
same,τ2 contribution,[2]; [9],91%
same,Quantum yield,[2]; [10],1.64(5) · 10^−2%
same,τ1,[2]; [10],6.51(8) μs
same,τ1 contribution,[2]; [10],65%
same,τ2,[2]; [10],21(1) μs
same,τ2 contribution,[2]; [10],35%
same,Contribution of the long lifetime inside of HeLa cells,[2]; all experimental conditions,more than 90%
same,Integrity of the MC,"[2]; cell culture media and cells, different experimental conditions",stays intact in cell culture media and in the cells
same,"Change of luminescent properties in media, cell supernatant or HeLa cells",[2]; with/without exposure to UV light,did not change in the cells; also recorded: did not change in cell supernatant or inside of the HeLa cells

# — patent US10359430B2, “Selective near-infrared optical imaging of necrotic cells and simultaneous cell fixing and counter staining with metallacrown complexes” (THE REGENTS OF THE UNIVERSITY OF MICHIGAN, priority 2015, dated 2019)
